Measured values as given in ChEMBL document CHEMBL1154784, “Discovery of potential ZAP-70 kinase inhibitors: pharmacophore design, database screening and docking studies” (Eur J Med Chem, 2009).
pIC50: −log10 of the molar value.

Biological target: T1, Tyrosine-protein kinase ZAP-70 (Homo sapiens, UniProt P43403)
T1 sequence (P43403 whole entry): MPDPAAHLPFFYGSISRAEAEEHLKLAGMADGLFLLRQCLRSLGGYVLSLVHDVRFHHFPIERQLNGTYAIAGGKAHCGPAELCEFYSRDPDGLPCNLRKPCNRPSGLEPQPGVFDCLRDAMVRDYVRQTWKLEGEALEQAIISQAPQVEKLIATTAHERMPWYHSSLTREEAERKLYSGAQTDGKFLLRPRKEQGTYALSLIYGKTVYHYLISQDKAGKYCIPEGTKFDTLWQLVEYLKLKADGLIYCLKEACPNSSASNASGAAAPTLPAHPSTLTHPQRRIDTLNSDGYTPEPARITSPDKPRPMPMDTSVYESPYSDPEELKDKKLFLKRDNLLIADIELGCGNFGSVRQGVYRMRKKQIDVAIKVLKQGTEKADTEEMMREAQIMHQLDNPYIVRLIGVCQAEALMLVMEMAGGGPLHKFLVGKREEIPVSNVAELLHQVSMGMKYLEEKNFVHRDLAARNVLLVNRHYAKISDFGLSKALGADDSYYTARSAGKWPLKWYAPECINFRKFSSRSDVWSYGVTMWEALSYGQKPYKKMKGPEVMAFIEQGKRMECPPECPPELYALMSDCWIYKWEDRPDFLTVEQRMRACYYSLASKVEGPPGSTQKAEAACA
Experiment: Inhibition of human GST-fused ZAP-70 expressed in Sf9 cells

Cc1c(CCC(=O)O)c[nH]c1/C=C1\C(=O)Nc2ccccc21
pIC50: 4.60

Cc1[nH]c(/C=C2\C(=O)Nc3ccccc32)c(C)c1CCC(=O)O [ORANTINIB]
pIC50: 4.55
